{
  "source": "patent US7943654B2",
  "about": "“1H-thieno[2,3-c]pyrazole compounds useful as kinase inhibitors” (Nerviano Medical Sciences S.R.L., priority 2005, dated 2011)",
  "key": {"[1]": {"tested_on": "human colon cancer cell line HCT-116", "assay": "In vitro cell proliferation assay", "assay_type": "cell-based", "conditions": "HCT-116, 72 hours of treatment, cell count, read-out: Cell Antiproliferation IC50", "protocol": "The compounds of the invention were further tested, in vitro to assess the anti-proliferative effect onto cell cultures.\nIn Vitro Cell Proliferation Assay\nThe human colon cancer cell line HCT-116 was seeded at 5000 cells/cm^2 in 24 wells plate (Costar) using F12 medium (Gibco) supplemented with 10% FCS (EuroClone, Italy) 2 mM L-glutamine and 1% penicillin/streptomycin and maintained at 37° C., 5% CO2 and 96% relative humidity. The following day, plates were treated in duplicates with 5 ul of an appropriate dilution of compounds starting from a 10 mM stock in DMSO. Two untreated control wells were included in each plate. After 72 hours of treatment, medium was withdrawn and cells detached from each well using 0.5 mL of 0.05% (w/v) Trypsin, 0.02% (w/v) EDTA (Gibco). Samples were diluted with 9.5 mL of Isoton (Coulter) and counted using a Multisizer 3 cell counter (Beckman Coulter). Data were evaluated as percent of the control wells: % of CTR=(Treated−Blank)/(Control−Blank).\nIC50 values were calculated by LSW/Data Analysis using Microsoft Excel sigmoidal curve fitting."}, "[2]": {"target": "T1, Aurora-2 (Homo sapiens, UniProt O14965)", "T1 sequence (O14965 1-403)": "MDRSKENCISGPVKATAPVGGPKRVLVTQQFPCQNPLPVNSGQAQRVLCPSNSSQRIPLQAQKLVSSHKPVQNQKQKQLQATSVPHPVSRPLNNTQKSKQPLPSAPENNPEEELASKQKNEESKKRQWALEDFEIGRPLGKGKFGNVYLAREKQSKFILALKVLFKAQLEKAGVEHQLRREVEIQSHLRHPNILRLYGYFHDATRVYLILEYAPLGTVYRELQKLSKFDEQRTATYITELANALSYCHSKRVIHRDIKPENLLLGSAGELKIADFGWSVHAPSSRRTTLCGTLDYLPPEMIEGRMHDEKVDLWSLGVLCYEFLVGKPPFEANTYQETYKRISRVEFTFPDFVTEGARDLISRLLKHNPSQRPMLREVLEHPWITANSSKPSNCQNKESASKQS", "assay": "Inhibition assay of Aurora-2 activity (SPA)", "assay_type": "biochemical", "conditions": "10 μM ATP, 60 minutes at room temperature", "protocol": "The inhibiting activity and the potency of selected compounds is determined through a method of assay based on the use of the SPA technology (Amersham Pharmacia Biotech).\nThe assay consists of the transfer of radioactivity labelled phosphate moiety by the kinase to a biotinylated substrate. The resulting 33P-labelled biotinylated product is allowed to bind to streptavidin-coated SPA beads (biotin capacity 130 pmol/mg), and light emitted was measured in a scintillation counter.\nInhibition Assay of Aurora-2 Activity\nKinase reaction: 8 μM biotinylated peptide (4 repeats of LRRWSLG) (SEQ ID NO:2), 10 μM ATP (0.5 uCiP^33 γ-ATP), 7.5 ng Aurora 2, inhibitor in a final volume of 30 μl buffer (HEPES 50 mM pH 7.0, MgCl2 10 mM, 1 mM DTT, 0.2 mg/mL BSA, 3 μM orthovanadate) were added to each well of a 96 U bottom well plate. After 60 minutes at room temperature incubation, reaction was stopped and biotinylated peptide captured by adding 100 μl of bead suspension.\nStratification: 100 μl of CsCl 5 M were added to each well and let stand 4 hour before radioactivity was counted in the Top-Count instrument.\nIC50 determination: inhibitors were tested at different concentrations ranging from 0.0015 to 10 μM. […]"}},
  "data": [
    {"smiles": "CC(C)(NC(=O)c1cc2c(NC(=O)c3ccccc3NC(=O)c3ccc[nH]3)n[nH]c2s1)c1ccccc1", "note": "[Compound (1), 3-{2-[(1H-pyrrole-2-carbonyl)-amino]-benzoylamino}-1H-thieno[2,3-c]pyrazole-5-carboxylic acid (1-methyl-1-phenyl-ethyl)-amide]", "values": [
      {"measurement": "IC50", "setting": "[1]", "result": 7, "unit": "nM"},
      {"measurement": "IC50", "setting": "[2]", "result": 6, "unit": "nM"}
    ]},
    {"smiles": "CC(C)(NC(=O)c1cc2c(NC(=O)c3ccccc3NC(=O)c3ccc[nH]3)n[nH]c2s1)c1ccccc1F", "note": "[Compound (2), 3-{2-[(1H-pyrrole-2-carbonyl)-amino]-benzoylamino}-1H-thieno[2,3-c]pyrazole-5-carboxylic acid [1-(2-fluoro-phenyl)-1-methyl-ethyl]-amide]", "values": [
      {"measurement": "IC50", "setting": "[1]", "result": 54, "unit": "nM"},
      {"measurement": "IC50", "setting": "[2]", "result": 12, "unit": "nM"}
    ]}
  ]
}
